Experimental data published in patent publication US7618960B2, “Morpholine type cinnamide compound” (Eisai R&D Management Co., Ltd., priority 2005, dated 2009).

system: Aβ42 production; experiment: Quantification of Aβ peptide in culture of neurons from rat fetus brain (Aβ ELISA); format: cell-based; settings: Neuron, 72 h; rat primary neuronal culture (cerebral cortex, embryonic day 18 Wistar rats); medium collected three days after addition of compound; Aβx-42 ELISA; read-out: Activity for reducing Aβ42 production IC50
Protocol: Quantification of Aβ Peptide in Culture of Neurons from Rat Fetus Brain
(1) Rat Primary Neuronal Culture
Primary neuronal cultures were prepared from the cerebral cortex of embryonic day 18 Wistar rats (Charles River Japan, Yokohama, Japan). Specifically, the embryos were aseptically removed from pregnant rats under ether anesthesia. The brain was isolated from the embryo and immersed in an ice-cold L-15 medium (Invitrogen Corp. Cat #11415-064, Carlsbad, Calif., USA, or SIGMA L1518, for example). The cerebral cortex was collected from the isolated brain under a stereoscopic microscope. The cerebral cortex fragments collected were enzymatically treated in an enzyme solution containing 0.25% trypsin (Invitrogen Corp. Cat #15050-065, Carlsbad, Calif., USA) and 0.01% DNase (Sigma D5025, St. Louis, Mo., USA) at 37° C. for 30 minutes to disperse the cells. Here, the enzymatic reaction was stopped by adding inactivated horse serum to the solution. The enzymatically treated solution was centrifuged at 1,500 rpm for five minutes to remove the supernatant. 5 to 10 ml of a medium was added to the resulting cell mass. Neurobasal medium (Invitrogen Corp. Cat #21103-049, Carlsbad, Calif., USA) supplemented with 2% B27 supplement (Invitrogen Corp. Cat #17504-044, Carlsbad, Calif., USA), 25 μM 2-mercaptoethanol (2-ME, WAKO Cat #139-06861, Osaka, Japan), 0.5 mM L-glutamine (Invitrogen Corp. Cat #25030-081, Carlsbad, Calif., USA), and Antibiotics-Antimycotics (Invitrogen Corp. Cat #15240-062, Carlsbad, Calif., USA) was used as the medium (Neurobasal/B27/2-ME). However, the above Neurobasal medium not supplemented with 2-ME (Neurobasal/B27) was used for the assay. The cells were redispersed by mild pipetting of the cell mass to which the medium was added. The cell dispersion was filtered through a 40-μm nylon mesh (Cell Strainer, Cat #35-2340, Becton Dickinson Labware, Franklin Lakes, N.J., USA) to remove the remaining cell mass, and thus a neuronal cell suspension was obtained. The neuronal cell suspension was diluted with the medium and then plated in a volume of 100 μl/well at an initial cell density of 5×10^5 cells/cm^2 in a 96-well polystyrene culture plate pre-coated with poly-L or D-lysine (Falcon Cat #35-3075, Becton Dickinson Labware, Franklin Lakes, N.J., USA coated with poly-L-lysine using the method shown below, or BIOCOAT™ cell environments Poly-D-lysine cell ware 96-well plate, Cat #35-6461, Becton Dickinson Labware, Franklin Lakes, N.J., USA). Poly-L-lysine coating was carried out as follows. 100 μg/ml of a poly-L-lysine (SIGMA P2636, St. Louis, Mo., USA) solution was aseptically prepared with a 0.15 M borate buffer (pH 8.5). 100 μl/well of the solution was added to the 96-well polystyrene culture plate and incubated at room temperature for one or more hours or at 4° C. overnight or longer. The coated 96-well polystyrene culture plate was washed with sterile water four or more times, and then dried or rinsed with, for example, sterile PBS or medium, and used for cell plating. The plated cells were cultured in the culture plate at 37° C. in 5% […]-95% air for one day. Then, the total amount of the medium was replaced with a fresh Neurobasal™/B27/2-ME medium, and then the cells were cultured for further three days.
The drug was added to the culture plate on Day 4 of culture as follows. The total amount of the medium was removed from the wells, and 180 μl/well of Neurobasal medium not containing 2-ME and containing 2% B-27 (Neurobasal/B27) was added thereto. A solution of the test compound in dimethyl sulfoxide (hereinafter abbreviated as DMSO) was diluted with Neurobasal/B27 so that the initial concentration was at 10-fold of the final concentration. 20 μl/well of the dilution was added to and sufficiently mixed with the medium. The final DMSO concentration was 1% or less. Only DMSO was added to the control group.
The cells were cultured for three days after addition of the compound, and the total amount of the medium was collected. […]

Row | Compound | IC50 [nM]
1 | COc1cc(/C=C2\OCCN(Cc3cc(F)c(F)c(F)c3)C2=O)ccc1-n1cnc(C)c1 [Example 1, (Z)-2-[1-[3-methoxy-4-(4-methyl-1H-imidazol-1-yl)phenyl]methylidene]-4-(3,4,5-trifluorobenzyl)morpholin-3-one] | 77
2 | COc1cc(/C=C2\OCCN(Cc3ccc(F)c(F)c3F)C2=O)ccc1-n1cnc(C)c1 [Example 2, (Z)-2-[1-[3-methoxy-4-(4-methyl-1H-imidazol-1-yl)phenyl]methylidene]-4-(2,3,4-trifluorobenzyl)morpholin-3-one] | 187
3 | COc1cc(/C=C2\O[C@@H](C)CN(Cc3cc(F)c(F)c(F)c3)C2=O)ccc1-n1cnc(C)c1 [Example 3, (Z)-(S)-2-[1-[3-methoxy-4-(4-methyl-1H-imidazol-1-yl)phenyl]methylidene]-6-methyl-4-(3,4,5-trifluorobenzyl)morpholin-3-one] | 41
4 | COc1cc(/C=C2\O[C@H](C)CN(Cc3cc(F)c(F)c(F)c3)C2=O)ccc1-n1cnc(C)c1 [Example 4, (Z)-(R)-2-[1-[3-methoxy-4-(4-methyl-1H-imidazol-1-yl)phenyl]methylidene]-6-methyl-4-(3,4,5-trifluorobenzyl)morpholin-3-one] | 69
5 | COc1cc(/C=C2\O[C@@H](C)CN(Cc3ccc(F)c(F)c3F)C2=O)ccc1-n1cnc(C)c1 [Example 5, (Z)-(S)-2-[1-[3-methoxy-4-(4-methyl-1H-imidazol-1-yl)phenyl]methylidene]-6-methyl-4-(2,3,4-trifluorobenzyl)morpholin-3-one] | 125
6 | COc1cc(/C=C2\O[C@H](C)CN(Cc3ccc(F)c(F)c3F)C2=O)ccc1-n1cnc(C)c1 [Example 6, (Z)-(R)-2-[1-[3-methoxy-4-(4-methyl-1H-imidazol-1-yl)phenyl]methylidene]-6-methyl-4-(2,3,4-trifluorobenzyl)morpholin-3-one] | 156
7 | COc1cc(/C=C2\OC(C)(C)CN([C@@H](C)c3ccc(F)cc3)C2=O)ccc1-n1cnc(C)c1 [Example 7, (Z)-4-[(S)-1-(4-fluorophenyl)ethyl]-2-[1-[3-methoxy-4-(4-methyl-1H-imidazol-1-yl)phenyl]methylidene]-6,6-dimethylmorpholin-3-one] | 76
8 | COc1cc(/C=C2\O[C@H](C)CN([C@@H](C)c3ccc(F)cc3)C2=O)ccc1-n1cnc(C)c1 [Example 8, (Z)-(R)-4-[(S)-1-(4-fluorophenyl)ethyl]-2-[1-[3-methoxy-4-(4-methyl-1H-imidazol-1-yl)phenyl]methylidene]-6-methylmorpholin-3-one] | 113
9 | COc1cc(/C=C2\O[C@@H](C)CN([C@@H](C)c3ccc(F)cc3)C2=O)ccc1-n1cnc(C)c1 [Example 9, (Z)-(S)-4-[(S)-1-(4-fluorophenyl)ethyl]-2-[1-[3-methoxy-4-(4-methyl-1H-imidazol-1-yl)phenyl]methylidene]-6-methylmorpholin-3-one] | 60
10 | COc1cc(/C=C2\OCCN([C@@H](C)c3cc(F)c(F)c(F)c3)C2=O)ccc1-n1cnc(C)c1 [Example 10, (Z)-2-[1-[3-methoxy-4-(4-methyl-1H-imidazol-1-yl)phenyl]methylidene]-4-[(S)-1-(3,4,5-trifluorophenyl)ethyl]morpholin-3-one] | 84
11 | COc1cc(/C=C2\OC(C)(C)CN([C@H]3CCOc4ccccc43)C2=O)ccc1-n1cnc(C)c1 [Example 12, (Z)-4-[(S)-chroman-4-yl]-2-[1-[3-methoxy-4-(4-methyl-1H-imidazol-1-yl)phenyl]methylidene]-6,6-dimethylmorpholin-3-one] | 101
12 | COc1cc(/C=C2\O[C@@H](C)CN([C@H]3CCOc4ccccc43)C2=O)ccc1-n1cnc(C)c1 [Example 13, (Z)-(S)-4-[(S)-chroman-4-yl]-2-[1-[3-methoxy-4-(4-methyl-1H-imidazol-1-yl)phenyl]methylidene]-6-methylmorpholin-3-one] | 129
13 | COc1cc(/C=C2\O[C@H](C)CN([C@H]3CCOc4ccccc43)C2=O)ccc1-n1cnc(C)c1 [Example 14, (Z)-(R)-4-[(S)-chroman-4-yl]-2-[1-[3-methoxy-4-(4-methyl-1H-imidazol-1-yl)phenyl]methylidene]-6-methylmorpholin-3-one] | 146
14 | COc1cc(/C=C2\O[C@@H](C)CN([C@@H](C)c3ccc(Cl)nc3)C2=O)ccc1-n1cnc(C)c1 [Example 18, (Z)-(S)-4-[(S)-1-(6-chloropyridin-3-yl)ethyl]-2-[1-[3-methoxy-4-(4-methyl-1H-imidazol-1-yl)phenyl]methylidene]-6-methylmorpholin-3-one] | 183
15 | COc1cc(/C=C2\O[C@@H](C)CN([C@H](C)c3ccc(Cl)nc3)C2=O)ccc1-n1cnc(C)c1 [Example 19, (Z)-(S)-4-[(R)-1-(6-chloropyridin-3-yl)ethyl]-2-[1-[3-methoxy-4-(4-methyl-1H-imidazol-1-yl)phenyl]methylidene]-6-methylmorpholin-3-one] | 54
16 | COc1cc(/C=C2\O[C@@H](C)CN([C@@H](C)c3ccc(Cl)cn3)C2=O)ccc1-n1cnc(C)c1 [Example 20, (Z)-(S)-4-[(S)-1-(5-chloropyridin-2-yl)ethyl]-2-[1-[3-methoxy-4-(4-methyl-1H-imidazol-1-yl)phenyl]methylidene]-6-methylmorpholin-3-one] | 82
17 | COc1cc(/C=C2\O[C@@H](C)CN([C@H](C)c3ccc(Cl)cn3)C2=O)ccc1-n1cnc(C)c1 [Example 21, (Z)-(S)-4-[(R)-1-(5-chloropyridin-2-yl)ethyl]-2-[1-[3-methoxy-4-(4-methyl-1H-imidazol-1-yl)phenyl]methylidene]-6-methylmorpholin-3-one] | 195
18 | COc1cc(/C=C2\O[C@@H](C)CN([C@@H](C)c3ccc(F)nc3F)C2=O)ccc1-n1cnc(C)c1 [Example 22, (Z)-(S)-4-[(S)-1-(2,6-difluoropyridin-3-yl)ethyl]-2-[1-[3-methoxy-4-(4-methyl-1H-imidazol-1-yl)phenyl]methylidene]-6-methylmorpholin-3-one] | 30
19 | COc1cc(/C=C2\O[C@@H](C)CN([C@H](C)c3ccc(F)nc3F)C2=O)ccc1-n1cnc(C)c1 [Example 23, (Z)-(S)-4-[(R)-1-(2,6-difluoropyridin-3-yl)ethyl]-2-[1-[3-methoxy-4-(4-methyl-1H-imidazol-1-yl)phenyl]methylidene]-6-methylmorpholin-3-one] | 130
20 | COc1cc(/C=C2\O[C@@H](C)CN([C@@H](C)c3ccnc(F)c3F)C2=O)ccc1-n1cnc(C)c1 [Example 24, (Z)-(S)-4-[(S)-1-(2,3-difluoropyridin-4-yl)ethyl]-2-[1-[3-methoxy-4-(4-methyl-1H-imidazol-1-yl)phenyl]methylidene]-6-methylmorpholin-3-one] | 36
21 | COc1cc(/C=C2\O[C@@H](C)CN([C@H](C)c3ccnc(F)c3F)C2=O)ccc1-n1cnc(C)c1 [Example 25, (Z)-(S)-4-[(R)-1-(2,3-difluoropyridin-4-yl)ethyl]-2-[1-[3-methoxy-4-(4-methyl-1H-imidazol-1-yl)phenyl]methylidene]-6-methylmorpholin-3-one] | 141

same assay, conditions: rat primary neuronal culture (cerebral cortex, embryonic day 18 Wistar rats); medium collected three days after addition of compound; Aβx-42 ELISA; read-out: Activity for reducing Aβ42 production IC50

Row | Compound | IC50 [nM]
22 | COc1cc(/C=C2\OC[C@H]3CCC[C@@H](c4ccc(F)cc4)N3C2=O)ccc1-n1cnc(C)c1 [Example 16] | 201
